Measurements: the METLIN SMRT retention time set (Domingo-Almenara et al. 2019)

Experiment: gradient 5% acetonitrile 3 min, to 50% in 2 min, to 85% in 15 min, held 3 min, 100 µL/min
Settings: column: Zorbax Extend-C18 2.1 x 50 mm; eluents: water / acetonitrile, 0.1% formic acid
Method in brief: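 In both positive and negative ionization mode, a quadrupole time-of-flight mass spectrometer coupled to HPLC analyzed pure standards run in mixtures of ~100 molecules. The Zorbax Extend-C18 column (2.1 × 50 mm, 1.8 μm) was operated at 100 μL/min with water and acetonitrile, each containing 0.1% formic acid. The dead volume was 40 μL and the dwell volume 900 μL. Retention time came from adduct peaks that were computationally picked and individually inspected by hand.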

| SMILES | RP-LC retention time [s] |
| --- | --- |
| CSc1ccccc1CN1CCC(CNC(=O)C(=O)NCC(F)(F)F)CC1 | 574 |
| Cc1ccccc1Cn1c(CN2CCC(C(=O)NCCC3=CCCCC3)CC2)cc2ccccc21 | 928 |
| Cc1ccc(OC(=O)c2cc3c(C)nn(-c4ccccc4)c3s2)cc1C | 979 |
| CCOC(=O)c1c(C)[nH]c(C(=O)N2CCCC(C(=O)NCc3ccc(OC(C)C)cc3)C2)c1C (stereo unspecified) | 930 |
| CCC1(O)CCOC2(CCN(Cc3ccc(OC)c(C)c3)CC2)C1 (stereo unspecified) | 575 |
| COC(=O)C(C)N1CN(c2ccc(C)cc2)c2ncccc2S1(=O)=O (stereo unspecified) | 918 |
| COc1ccc(CN2N=C(C(=O)N3CCCC3)S(=O)(=O)c3ccccc32)cc1F | 725 |
| O=C(C1CCCCC1)N1CC(c2nc(-c3ccccc3)no2)C2(CCOCC2)C1 (stereo unspecified) | 963 |
| COc1ccc(S(=O)(=O)Nc2cc(C)ccn2)cc1 | 616 |
| COCCCNC(=O)c1ccc(-c2cnc(NC3CCCCC3)nc2)cc1 | 806 |
| CCn1nnc2cc(-c3noc(CN4C(=O)COc5ccccc54)n3)ccc21 | 845 |
| COc1ccccc1OCCNS(=O)(=O)c1cc2n(c1)CCCNC2=O | 654 |
| CCc1ccc(-n2ncc3c(=O)n(Cc4nc(-c5ccc(Cl)cc5)no4)cnc32)cc1 | 1270 |
| COc1ccc2c(c1)C1(CCN(C(=O)NC(C)(C)C)C1)C(=O)N2C (stereo unspecified) | 753 |
| COc1cc(-c2noc(-c3nn(-c4cccc(F)c4)ccc3=O)n2)cc(OC)c1OC | 824 |
| CC(=O)N1CCc2sc(C(=O)N3CCN(c4ccc(Cl)cc4)CC3)cc2C1 | 837 |
| Cc1c(CN2CCC[C@H]2c2nc(-c3ccccc3)n[nH]2)cnn1C | 584 |
| COc1ccc(-c2ccnc3nc(CC(C)C)nn23)cc1OC | 824 |
| O=C(c1nc(CS(=O)(=O)c2ccccc2)no1)N1CCN(c2ccccn2)CC1 | 616 |
| CNC(=O)N1CCC(C2CCN(C(=O)C3CC=CC3)C2)CC1 (stereo unspecified) | 646 |
| COc1ccc(C(=O)NC2CCN(c3cc(-c4cccs4)[nH]n3)C2)cn1 (stereo unspecified) | 676 |
| COc1ccc(OC)c(NC(=O)CN2c3ccc(F)cc3-c3ccccc3S2(=O)=O)c1 | 1010 |

| SMILES | RP-LC retention time [s] |
| --- | --- |
| Cc1ccc(Cn2c(N3CCCC(C(=O)NCc4ccc(F)cc4)C3)nc3ccsc3c2=O)cc1 (stereo unspecified) | 993 |
| O=C(NC1CCCCCCC1)c1nnc(-c2ccc(S(=O)(=O)N3CCCCC3)cc2)o1 | 754 |
| COc1ccc(-n2ncc3c(=O)n(Cc4nc(-c5ccc(F)cc5)no4)cnc32)cc1 | 1030 |
| O=C1NC(=O)c2c(NC(=O)C3(c4ccc(Cl)cc4)CCCC3)cccc21 | 1060 |
| CC(C)n1c(=O)sc2cc(S(=O)(=O)N3CCC(C(=O)NCCC4=CCCCC4)CC3)ccc21 | 1020 |
| NC(=O)CSc1nccn1Cc1cccs1 | 516 |
| COc1cc(C(=O)N(Cc2ccc(N(C)C)cc2)C2CCS(=O)(=O)C2)cc(OC)c1OC (stereo unspecified) | 634 |
| Cc1nnc(-c2ccc3ccn(CC(=O)N4CCc5ccccc54)c3c2)o1 | 852 |
| O=C1C(NS(=O)(=O)Cc2cc(F)cc(F)c2)CCN1c1ccccc1 (stereo unspecified) | 914 |
| CC1CCCN(CC2CCN(S(=O)(=O)Cc3ccccc3Cl)CC2)C1 (stereo unspecified) | 662 |
| Brc1ccc(NCc2nnc(-c3ccccc3)o2)cc1 | 899 |
| COc1ccc(CNC(=O)C2=C3CCCN3c3ccc(F)cc3S2(=O)=O)c(OC)c1 | 870 |
| CC(C)C(=O)NCc1csc(C2CCCN(C(=O)CC3CCCCC3)C2)n1 (stereo unspecified) | 816 |
| Clc1ccccc1/C=C/c1ccnc2ccccc12 | 910 |
| O=C(NCCc1csc(-c2ccccc2)n1)[C@H]1CCCN1C(=O)C1CCCC1 | 814 |
| Cc1ccc2oc(-c3noc(C(=O)NCc4ccc(C)o4)n3)c(C)c2c1 | 1080 |
| NS(=O)(=O)c1ccc(NC(=O)CSc2ccc3ccccc3n2)cc1 | 736 |
| COc1ccc(-n2nc(C)c3sc(N4CCCC(C(=O)NCC5CCCO5)C4)nc32)cc1 (stereo unspecified) | 895 |
| Cc1ccc(S(=O)(=O)c2cnc(N3CCC(C(N)=O)(N4CCCCC4)CC3)nc2N)cc1C | 654 |
| Cc1ccc(-c2nc(-c3cccc(-c4ccn[nH]4)c3)no2)cc1F | 915 |
| COc1ccc(-c2nc(-c3cccc(-c4ccn[nH]4)c3)no2)cc1OC | 905 |
| CCCNC(=O)C1CCN(c2cnc(N3CCN(CC)CC3)nc2)CC1 | 565 |

| SMILES | RP-LC retention time [s] |
| --- | --- |
| COc1cccc(-c2noc(C3CC(=O)N(c4ccc(F)cc4)C3)n2)c1OC (stereo unspecified) | 885 |
| COc1cc([C@@H]2c3cc4c(cc3[C@H](O)[C@@H](CO)[C@@H]2C(=O)N2CCN(c3ccc(F)cc3)CC2)OCO4)cc(OC)c1OC | 720 |
| O=C(OCc1cc(-c2ccccc2)on1)c1ccc[nH]c1=O | 656 |
| CSC1=C(C#N)C(c2ccco2)C(C(=O)Nc2ccccc2C)=C(C)N1 (stereo unspecified) | 786 |
| N#Cc1cccc(NC(=O)Cn2cccc(-c3nc(-c4ccc(Br)cc4)no3)c2=O)c1 | 958 |
| CCc1onc(C)c1C1CCCN1C(=O)c1c(Br)cnn1C (stereo unspecified) | 728 |
| CCCC(=O)Nc1cc2c(cc1N1CCC(C)CC1)n(C)c(=O)c(=O)n2C | 820 |
| Cc1ccc2[nH]c(=O)c(CCC(=O)N(C)Cc3cn(C)nc3C)cc2c1 | 646 |
| COc1ccc(-c2nc3cccnc3n2C2CCN(C(=O)NC(C)C)C2)cc1 (stereo unspecified) | 667 |
| CCc1ccccc1NC(=O)N1CC(c2nc(C)no2)C2(CCOCC2)C1 (stereo unspecified) | 731 |
| COC(=O)C1=CN(c2cccc(C)c2C)c2ccccc2S1(=O)=O | 916 |
| CCCn1cc(C(=O)NCCCOCC)c(S(=O)(=O)N2CCN(c3ccc(Cl)cc3)CC2)n1 | 1080 |
| COc1ccc(CNC(=O)C2CCCN(c3cnc4nccnc4c3)C2)cc1 (stereo unspecified) | 676 |
| Cc1cccc(Sc2nccnc2N2CCC(C(=O)NCc3cccc(Cl)c3)CC2)c1 | 1150 |
| COc1cccc(NC(=O)c2cn3c(n2)CCCC3)c1 | 598 |
| COC(=O)c1sccc1S(=O)(=O)NCC1CCN(Cc2cc(C)oc2C)CC1 | 579 |
| CNC(=O)c1cc(C)nc2ccc(F)cc12 | 580 |
| CC(C)c1ccc(C(C)NC(=O)C2CCN(Cc3cn(C)c4ccccc34)CC2)cc1 (stereo unspecified) | 804 |
| CCOC(=O)C(C)Sc1ccc2nnc(CCNC(=O)c3ccc(OC)cc3)n2n1 (stereo unspecified) | 647 |
| O=C(NC1CCCCCC1)c1ccc2ccnc(N3CCN(c4ccc(F)cc4)CC3)c2c1 | 973 |
| CCC1CCC(c2nnc(-c3ccc([N+](=O)[O-])cc3)o2)CC1 (stereo unspecified) | 1120 |
| Cc1cccn2cc(-c3cccc(S(=O)(=O)N4CCCC4)c3)nc12 | 637 |
